Experimental data published in patent publication US8053458B2, “Dipyrazole compounds and their use as central nervous system agents” (Aventis Pharmaceuticals Inc., priority 2005, dated 2011).
Marks after values point to notes of the source that are not given here.

Columns and labels:
NMDA receptors = test: Voltage whole-cell recording: increase of NMDA-evoked current in acutely dissociated prefrontal cortical neurons; format: cell-based, rats; conditions: rat PFC neurons; for Increase of NMDA-Evoked Current, Minimal Effective Concentration: NMDA 100 μM in Mg2+-free solution, whole-cell voltage clamp; for Average percent increase in NMDA current (10 μM): compound at 10 μM, NMDA 100 μM
Method: (§1) Prefrontal cortical (PFC) neurons from young adult (3-5 weeks postnatal) rats are acutely dissociated using procedures similar to those described previously (Feng, et al., J Neurosci, 2001; Chen, et al., Proc Natl Acad Sci USA, 2004). After incubation of brain slices in a NaHCO3-buffered saline, PFC is dissected and placed in an oxygenated chamber containing papain (Sigma, 0.8 mg/ml) in HEPES-buffered Hank's balanced salt solution (HBSS, Sigma) at room temperature. After 40 minutes of enzyme digestion, tissue is rinsed three times in the low Ca^+2, HEPES-buffered saline and mechanically dissociated with a graded series of fire-polished Pasteur pipettes. The cell suspension is then plated into a 35 mm Lux Petri dish, which is then placed on the stage of a Nikon inverted microscope.
(§2) Whole-cell recordings of whole-cell ion channel currents employ standard voltage clamp techniques (Yan et al., Nat Neuroscience, 1999; Wang et al., J Neurosci, 2003; Tyszkiewicz et al., J. Physiol., 2004). The internal solution (inside the patch pipette) consists of (in mM): 180 N-methyl-d-glucamine (NMG), 40 HEPES, 4 MgCl2, 0.1 BAPTA, 12 phosphocreatine, 3 Na2ATP, 0.5 Na2GTP, 0.1 leupeptin, pH=7.2-7.3, 265-270 mosm/L. The external solution consists of (in mM): 127 NaCl, 20 CsCl, 10 HEPES, 1 CaCl2, 5 BaCl2, 12 glucose, 0.001 TTX, 0.02 glycine, pH=7.3-7.4, 300-305 mOsm/L. Recordings are obtained with an Axon Instruments 200B patch clamp amplifier that is controlled and monitored with an IBM PC running pCLAMP (v. 8) with a DigiData 1320 series interface (Axon instruments). Electrode resistances are typically 2-4 MΩ in the bath. After seal rupture to attain whole-cell recording conditions, series resistance (4-10 MΩ) is compensated (70-90%) and periodically monitored. The cell membrane potential is held at −60 mV.
(§3) The application of KA (200 μM) or NMDA (100 μM, in Mg^2+-free solution) evokes a partially desensitizing inward current. KA or NMDA is applied for 2 seconds every 30 seconds to minimize desensitization-induced decrease of current amplitude. Drugs are applied with a gravity-fed ‘sewer pipe’ system. The array of application capillaries (ca. 150 μm i.d.) is positioned a few hundred microns from the cell under study. Solution changes are effected by the SF-77B fast-step solution stimulus delivery device (Warner Instruments). Data are collected with PCLAMP software and analyzed with AXOGRAPH, KALEIDOGRAPH, and STATVIEW.
(§4) Compounds described herein inhibit the KA-induced rundown of AMPA current by either stabilizing the agonist-evoked current of increasing the current. Likewise, compounds described herein increase the NMDA-evoked current. The minimum effective dose (MED) was identified by determining the lowest concentration of inhibitor that was effective in each functional assay.

AMPA receptors = test: Voltage whole-cell recording: inhibition of KA-induced rundown of AMPA current in acutely dissociated prefrontal cortical neurons; format: cell-based, rats; conditions: KA 200 μM; rat PFC neurons; whole-cell voltage clamp, held at −60 mV; 0.1 μM was the lowest concentration tested
Method: as §1, §2, §3, §4

Row | SMILES | Increase of NMDA-Evoked Current, Minimal Effective Concentration (NMDA receptors) | Average percent increase in NMDA current (10 μM) (NMDA receptors) | Inhibition of KA-Induced Rundown of AMPA Current, Minimal Effective Concentration (AMPA receptors)
1 | Cc1cc(-c2c(C)nn(-c3ccc(C(F)(F)F)cc3)c2O)[nH]n1 [Example 8, 5,5′-Dimethyl-2′-(4-trifluoromethyl-phenyl)-2H,2′H-[3,4′]bipyrazolyl-3′-ol] | 1 µM | 303% | 
2 | Cc1cc(-c2c(C)nn(-c3ccc(Cl)cc3)c2O)[nH]n1 [Example 5, 2′-(4-Chloro-phenyl)-5,5′-dimethyl-2H,2′H-[3,4′]bipyrazolyl-3′-ol] |  |  | 0.1 * μM
3 | Cc1cc(-c2c(C)nn(-c3cccc(Cl)c3)c2O)[nH]n1 [Example 18, 5,5′-Dimethyl-2′-(3-chlorophenyl)-2H,2′H-[3,4′]bipyrazolyl-3′-ol] | 5 µM | 55% | 1.0 µM
4 | Cc1cc(-c2c(C)nn(-c3ccccc3F)c2O)[nH]n1 [Example 4, 2′-(2-Fluoro-phenyl)-5,5′-dimethyl-2H,2′H-[3,4′]bipyrazolyl-3′-ol] |  |  | 0.1 * μM
5 | Cc1cccc(-n2nc(C)c(-c3cc(C)n[nH]3)c2O)c1 [Example 15, 5,5′-Dimethyl-2′-(3-methyl-phenyl)-2H,2′H-[3,4′]bipyrazolyl-3′-ol] |  |  | 1.0 µM
6 | Cc1cc(-c2c(C)nn(-c3ccccc3)c2O)[nH]n1 [Example 25, 5,5′-Dimethyl-2′-phenyl-2H,2′H-[3,4′]bipyrazolyl-3′-ol] |  |  | 1.0 µM
